Assay results taken from PubChem BioAssay AID493128 (Sanford-Burnham Center for Chemical Genomics, 2011).
The source made the active and inactive calls. How the calls were made is not given here.

biological target: intestinal alkaline phosphatase Alpi (Mus musculus); experiment: activation of murine Alpi phosphatase – biochemical, human IAP activator project, SAR follow-up (AID 493128); details: purified mouse IAP enzyme activity

Q: With O=C(N/N=C/c1c(O)ccc2ccccc12)C(=O)N/N=C/c1c(O)ccc2ccccc12 as the compound, how does the EC50 read?
A: The EC50 was > 100 µM (inactive).

Q: With O=C(N/N=C/c1ccc(O)cc1)C(=O)N/N=C/c1ccc(O)cc1 as the compound, how does the EC50 read?
A: The EC50 was > 100 µM (inactive).

Q: For CN(C)c1ccc(/C=N/NC(=O)C(=O)N/N=C/c2ccc(N(C)C)cc2)cc1, which EC50 is on record?
A: The EC50 was > 100 µM (inactive).

Q: Cc1cc(C(=O)NN=Cc2cccc([N+](=O)[O-])c2O)n[nH]1 was tested. Which EC50 did it give?
A: The EC50 was > 100 µM (inactive).

Q: How did the EC50 turn out when CC(C)C(=O)NC(=S)Nc1ccccc1C(=O)Nc1ccccc1 was run?
A: Its EC50 is > 100 µM (inactive).

Q: For Cc1ccc(O)c(C=NNC(=O)c2[nH]ncc2Br)c1, which EC50 is on record?
A: Its EC50 is > 100 µM (inactive).

Q: COc1ccc(/C=N/NC(=O)C(=O)N/N=C/c2ccc(OC)c(OC)c2)cc1OC was tested. Which EC50 did it give?
A: The EC50 was > 100 µM (inactive).

Q: How did the EC50 turn out when O=C(CCN1C(=O)/C(=C/c2ccccc2Cl)SC1=S)NNC(=O)c1ccccc1O was run?
A: The EC50 was > 100 µM (inactive).

Q: Which EC50 does the source give for CCOc1cccc(C=NNC(=O)c2cc(-c3cccn3C)n[nH]2)c1O here?
A: Its EC50 is > 100 µM (inactive).

Q: How did the EC50 turn out when CCOc1cccc(C=NNC(=O)c2cc(C3CC3)[nH]n2)c1O was run?
A: Its EC50 is > 100 µM (inactive).

Q: Which EC50 does the source give for COc1ccc(OC)c(/C=N/NC(=O)C(=O)N/N=C/c2cc(OC)ccc2OC)c1 here?
A: Its EC50 is > 100 µM (inactive).

Q: COc1cc(/C=N\NC(=O)C(=O)N/N=C/c2cc(OC)c(O)c(OC)c2)cc(OC)c1O was tested. Which EC50 did it give?
A: Its EC50 is > 100 µM (inactive).

Q: Which EC50 does the source give for COc1cccc(C=NNC(=O)C2=NNC(=O)C2C)c1O (stereo unspecified) here?
A: Its EC50 is > 100 µM (inactive).

Q: For Cc1cc(C(=O)NN=Cc2cc(Cl)cc([N+](=O)[O-])c2O)n[nH]1, which EC50 is on record?
A: The EC50 was > 100 µM (inactive).

Q: COc1cc(OC)cc(C(=O)NNC(=O)c2nn(C)c(=O)c3ccccc23)c1 was tested. Which EC50 did it give?
A: The EC50 was > 100 µM (inactive).

Q: O=C1Nc2ccc(Br)cc2C12NNc1ccccc1O2 (stereo unspecified) was tested. Which IC50 (inhibition of IAP activity) did it give?
A: The IC50 (inhibition of IAP activity) was 0.382 µM.

Q: Which EC50 does the source give for O=C(NN=Cc1ccccc1)C(=O)NN=Cc1ccccc1 here?
A: Its EC50 is > 100 µM (inactive).

Q: With COc1ccc(-c2cc(C(=O)NN=Cc3c(O)ccc4ccccc34)[nH]n2)cc1 as the compound, how does the EC50 read?
A: Its EC50 is > 100 µM (inactive).

Q: With O=C(N/N=C/c1ccccc1O)c1cc(C2CC2)[nH]n1 as the compound, how does the EC50 read?
A: Its EC50 is > 100 µM (inactive).

Q: For COc1cccc(C=NNC(=O)C(=O)NN=Cc2cccc(OC)c2O)c1O, which EC50 is on record?
A: The EC50 was > 100 µM (inactive).

Q: With CC(C)Oc1ccccc1/C=N/NC(=O)C(=O)N/N=C/c1ccccc1OC(C)C as the compound, how does the EC50 read?
A: The EC50 was > 100 µM (inactive).

Q: For Cn1cccc1-c1cc(C(=O)NN=Cc2cc(Br)ccc2O)[nH]n1, which EC50 is on record?
A: Its EC50 is > 100 µM (inactive).

Q: Which EC50 does the source give for O=C(N/N=C\c1cccc(O)c1)C(=O)N/N=C/c1cccc(O)c1 here?
A: Its EC50 is > 100 µM (inactive).

Q: With CC(=O)Nc1cccc(C(=O)NNC(=O)c2n[nH]c(=O)c3ccccc23)c1 as the compound, how does the EC50 read?
A: The EC50 was > 100 µM (inactive).

Q: How did the EC50 turn out when O=C(NN=Cc1ccc(O)cc1O)C(=O)NN=Cc1ccc(O)cc1O was run?
A: The EC50 was > 100 µM (inactive).

Q: COc1cc(OC)c(OC)cc1/C=N/NC(=O)C(=O)N/N=C/c1cc(OC)c(OC)cc1OC was tested. Which EC50 did it give?
A: The EC50 was > 100 µM (inactive).

Q: How did the EC50 turn out when COc1cccc(C=NNC(=O)c2[nH]nc3c2CCc2ccccc2-3)c1O was run?
A: The EC50 was > 100 µM (inactive).

Q: For CCN(CC)c1ccc(/C=N/NC(=O)C(=O)N/N=C/c2ccc(N(CC)CC)cc2O)c(O)c1, which EC50 is on record?
A: Its EC50 is > 100 µM (inactive).

Q: CC(=O)Nc1ccc(/C=N/NC(=O)C(=O)N/N=C/c2ccc(NC(C)=O)cc2)cc1 was tested. Which EC50 did it give?
A: The EC50 was > 100 µM (inactive).

Q: For CC1C(=O)NN=C1C(=O)NN=Cc1ccc(O)cc1O (stereo unspecified), which EC50 is on record?
A: The EC50 was > 100 µM (inactive).

Q: O=C(N/N=C/c1c(O)ccc2ccccc12)c1cc(-c2cccs2)[nH]n1 was tested. Which EC50 did it give?
A: The EC50 was > 100 µM (inactive).

Q: With O=C(NNC(=S)NC(=O)c1ccccc1[N+](=O)[O-])c1ccccc1O as the compound, how does the EC50 read?
A: The EC50 was > 100 µM (inactive).

Q: O=C(N/N=C/c1ccccc1C(=O)O)C(=O)N/N=C/c1ccccc1C(=O)O was tested. Which EC50 did it give?
A: The EC50 was > 100 µM (inactive).

Q: With C/C(=N\NC(=O)c1[nH]nc2c1CCc1ccccc1-2)c1ccccc1O as the compound, how does the EC50 read?
A: Its EC50 is > 100 µM (inactive).

Q: With O=C(N/N=C/c1cc(Br)ccc1O)C(=O)N/N=C/c1cc(Br)ccc1O as the compound, how does the EC50 read?
A: Its EC50 is > 100 µM (inactive).

Q: How did the EC50 turn out when O=C(N/N=C/c1ccc2c(c1)OCO2)C(=O)N/N=C/c1ccc2c(c1)OCO2 was run?
A: The EC50 was > 100 µM (inactive).

Q: For COC(=O)c1ccc(/C=N/NC(=O)C(=O)N/N=C/c2ccc(C(=O)OC)cc2)cc1, which EC50 is on record?
A: Its EC50 is > 100 µM (inactive).

Q: O=C(N/N=C\c1ccc2c(c1)OCO2)C(=O)N/N=C/c1ccc2c(c1)OCO2 was tested. Which EC50 did it give?
A: The EC50 was > 100 µM (inactive).

Q: With Cc1ccc(-c2cc(C(=O)NN=Cc3ccccc3O)n[nH]2)o1 as the compound, how does the EC50 read?
A: Its EC50 is > 100 µM (inactive).

Q: For O=C(NN=Cc1c(O)ccc2ccccc12)c1[nH]ncc1Br, which EC50 is on record?
A: The EC50 was > 100 µM (inactive).

Q: CCCCOc1ccc(/C=N/NC(=O)C(=O)N/N=C/c2ccc(OCCCC)cc2)cc1 was tested. Which EC50 did it give?
A: Its EC50 is > 100 µM (inactive).

Q: CC(=NNC(=O)C(=O)NN=C(C)c1cccc(O)c1)c1cccc(O)c1 was tested. Which EC50 did it give?
A: Its EC50 is > 100 µM (inactive).

Q: With COc1cccc(C=NNC(=O)c2cc(-c3cccn3C)n[nH]2)c1O as the compound, how does the EC50 read?
A: Its EC50 is > 100 µM (inactive).

Q: Which EC50 does the source give for O=C(N/N=C/c1ccccc1O)c1n[nH]c2c1CCC2 here?
A: Its EC50 is > 100 µM (inactive).

Q: Which EC50 does the source give for Cc1cc(C(=O)N/N=C/c2cc(Br)ccc2O)n[nH]1 here?
A: Its EC50 is > 100 µM (inactive).

Q: Which EC50 does the source give for N#CCOc1ccccc1/C=N/NC(=O)C(=O)N/N=C/c1ccccc1OCC#N here?
A: The EC50 was > 100 µM (inactive).

Q: O=C(NC(=S)NNC(=O)c1ccccc1O)c1ccc(F)cc1 was tested. Which EC50 did it give?
A: Its EC50 is > 100 µM (inactive).

Q: Which EC50 does the source give for COc1ccc(-c2csc(Nc3cccc4ccccc34)n2)cc1F here?
A: Its EC50 is > 100 µM (inactive).

Q: With COc1cc(/C=N/NC(=O)C(=O)N/N=C/c2cc(OC)c(OC)c(OC)c2)cc(OC)c1OC as the compound, how does the EC50 read?
A: The EC50 was > 100 µM (inactive).

Q: How did the EC50 turn out when COc1cccc(C=NNC(=O)C(=O)NN=Cc2cccc(OC)c2OC)c1OC was run?
A: The EC50 was > 100 µM (inactive).

Q: For C/C(=N\NC(=O)c1cc(C)[nH]n1)c1ccc2ccccc2c1O, which EC50 is on record?
A: The EC50 was > 100 µM (inactive).

Q: COc1cc(/C=N/NC(=O)C(=O)N/N=C/c2ccc(O)c(OC)c2)ccc1O was tested. Which EC50 did it give?
A: The EC50 was > 100 µM (inactive).

Q: O=C(N/N=C/c1cc(Br)ccc1O)c1cc(C2CC2)[nH]n1 was tested. Which EC50 did it give?
A: The EC50 was > 100 µM (inactive).

Q: For CCOc1cc(/C=N/NC(=O)C(=O)N/N=C/c2ccc(O)c(OCC)c2)ccc1O, which EC50 is on record?
A: Its EC50 is > 100 µM (inactive).

Q: Which EC50 does the source give for OC(c1nc2ccc(F)cc2[nH]1)C(O)c1nc2ccc(F)cc2[nH]1 (stereo unspecified) here?
A: The EC50 was > 100 µM (inactive).

Q: Which EC50 does the source give for Cc1cc(C(=O)N/N=C\c2cc(C(C)(C)C)ccc2O)n[nH]1 here?
A: The EC50 was > 100 µM (inactive).
